Data: PubChem BioAssay AID1963968 (Molecular Pharmacology Branch, DTP, NCI, 2024)
Several values for one entry are separate records, joined by “and”; a condition that tells them apart may be missing. Identical values can stand only once.

Test system: 945468-187-T-J3-PDC spheroids with HUVEC/MSC, viability
Experiment: Anticancer human tumor 945468-187-T-J3-PDC patient-derived rectal carcinoma cell line growth inhibition [PI3K]
Conditions: for viability, T/C: stronger effect = lower value
How it was run: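 We assembled tumor spheroids that included a stromal compartment of HUVEC and MSCs, then exposed them to targeted agents alone and together with PI3K pathway inhibitors. Concentration series descended by half-log from clinically achievable Cmax levels. Viability served as the endpoint.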

[1] = curve of first compound, second compound 0.0316 µM
[2] = curve of first compound, second compound 0.1 µM
[3] = curve of first compound, second compound 0.316 µM
[4] = curve of first compound, second compound 1 µM
[5] = second compound 0.0316 µM, first compound 0.0316 µM
[6] = second compound 0.0316 µM, first compound 0.1 µM
[7] = second compound 0.0316 µM, first compound 0.316 µM
[8] = second compound 0.0316 µM, first compound 1 µM
[9] = second compound 0.0316 µM, first compound 3.16 µM
[10] = second compound 0.0316 µM, first compound 10 µM
[11] = second compound 0.1 µM, first compound 0.0316 µM
[12] = second compound 0.1 µM, first compound 0.1 µM
[13] = second compound 0.1 µM, first compound 0.316 µM
[14] = second compound 0.1 µM, first compound 1 µM
[15] = second compound 0.1 µM, first compound 3.16 µM
[16] = second compound 0.1 µM, first compound 10 µM
[17] = second compound 0.316 µM, first compound 0.0316 µM
[18] = second compound 0.316 µM, first compound 0.1 µM
[19] = second compound 0.316 µM, first compound 0.316 µM
[20] = second compound 0.316 µM, first compound 1 µM
[21] = second compound 0.316 µM, first compound 3.16 µM
[22] = second compound 0.316 µM, first compound 10 µM
[23] = second compound 1 µM, first compound 0.0316 µM
[24] = second compound 1 µM, first compound 0.1 µM
[25] = second compound 1 µM, first compound 0.316 µM
[26] = second compound 1 µM, first compound 1 µM
[27] = second compound 1 µM, first compound 3.16 µM
[28] = second compound 1 µM, first compound 10 µM
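Further: spheroids exposed to agents for 7 days before viability read.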
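Wherever viability, T/C is given: 100% = DMSO vehicle control viability.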

SMILES: Cn1nccc1Nc1nccc(-c2ccn(C(CO)c3ccc(Cl)c(F)c3)c(=O)c2)n1 (configuration not stated) + CC(Nc1ncnc2nc[nH]c12)c1cc2cccc(Cl)c2c(=O)n1-c1ccccc1
- IC50 [1]: > 10 µM
- IC50 [2]: > 10 µM
- IC50 [3]: > 10 µM
- IC50 [4]: > 10 µM
- IC50 (curve of first compound, second compound 3.16 µM): > 10 µM
- IC50 (curve of first compound, second compound 10 µM): > 10 µM
- viability, T/C [5]: 126%
- viability, T/C [6]: 108%
- viability, T/C [7]: 117%
- viability, T/C [8]: 107%
- viability, T/C [9]: 113%
- viability, T/C [10]: 132%
- viability, T/C [11]: 94.3%
- viability, T/C [12]: 101%
- viability, T/C [13]: 113%
- viability, T/C [14]: 116%
- viability, T/C [15]: 117%
- viability, T/C [16]: 116%
- viability, T/C [17]: 93.3%
- viability, T/C [18]: 107%
- viability, T/C [19]: 111%
- viability, T/C [20]: 114%
- viability, T/C [21]: 116%
- viability, T/C [22]: 139%
- viability, T/C [23]: 113%
- viability, T/C [24]: 127%
- viability, T/C [25]: 102%
- viability, T/C [26]: 121%
- viability, T/C [27]: 118%
- viability, T/C [28]: 136%
- viability, T/C (second compound 3.16 µM, first compound 0.0316 µM): 108%
- viability, T/C (second compound 3.16 µM, first compound 0.1 µM): 109%
- viability, T/C (second compound 3.16 µM, first compound 0.316 µM): 106%
- viability, T/C (second compound 3.16 µM, first compound 1 µM): 120%
- viability, T/C (second compound 3.16 µM, first compound 3.16 µM): 116%
- viability, T/C (second compound 3.16 µM, first compound 10 µM): 122%
- viability, T/C (second compound 10 µM, first compound 0.0316 µM): 104%
- viability, T/C (second compound 10 µM, first compound 0.1 µM): 108%
- viability, T/C (second compound 10 µM, first compound 0.316 µM): 111%
- viability, T/C (second compound 10 µM, first compound 1 µM): 123%
- viability, T/C (second compound 10 µM, first compound 3.16 µM): 108%
- viability, T/C (second compound 10 µM, first compound 10 µM): 123%

SMILES: CNC(=O)c1ccc(N2C(=S)N(c3ccc(C#N)c(C(F)(F)F)c3)C(=O)C2(C)C)cc1F + CC(Nc1ccc2c(c1)OCCn1cc(N3C(=O)OCC3C(F)F)nc1-2)C(N)=O
- IC50 (curve of first compound, second compound 0.00316 µM): > 10 µM
- IC50 (curve of first compound, second compound 0.01 µM): > 10 µM
- IC50 [1]: > 10 µM
- IC50 [2]: > 10 µM
- IC50 [3]: > 10 µM
- IC50 [4]: > 10 µM
- viability, T/C (second compound 0.00316 µM, first compound 0.0316 µM): 92.4%
- viability, T/C (second compound 0.00316 µM, first compound 0.1 µM): 108%
- viability, T/C (second compound 0.00316 µM, first compound 0.316 µM): 109%
- viability, T/C (second compound 0.00316 µM, first compound 1 µM): 108%
- viability, T/C (second compound 0.00316 µM, first compound 3.16 µM): 132%
- viability, T/C (second compound 0.00316 µM, first compound 10 µM): 103%
- viability, T/C (second compound 0.01 µM, first compound 0.0316 µM): 105%
- viability, T/C (second compound 0.01 µM, first compound 0.1 µM): 124%
- viability, T/C (second compound 0.01 µM, first compound 0.316 µM): 115%
- viability, T/C (second compound 0.01 µM, first compound 1 µM): 129%
- viability, T/C (second compound 0.01 µM, first compound 3.16 µM): 111%
- viability, T/C (second compound 0.01 µM, first compound 10 µM): 108%
- viability, T/C [5]: 110%
- viability, T/C [6]: 118%
- viability, T/C [7]: 111%
- viability, T/C [8]: 126%
- viability, T/C [9]: 109%
- viability, T/C [10]: 111%
- viability, T/C [11]: 121%
- viability, T/C [12]: 108%
- viability, T/C [13]: 125%
- viability, T/C [14]: 128%
- viability, T/C [15]: 126%
- viability, T/C [16]: 109%
- viability, T/C [17]: 124%
- viability, T/C [18]: 104%
- viability, T/C [19]: 108%
- viability, T/C [20]: 115%
- viability, T/C [21]: 121%
- viability, T/C [22]: 108%
- viability, T/C [23]: 79.8%
- viability, T/C [24]: 63.1%
- viability, T/C [25]: 72.7%
- viability, T/C [26]: 81.1%
- viability, T/C [27]: 94.5%
- viability, T/C [28]: 94.3%

SMILES: Cn1ncnc1[C@H]1c2n[nH]c(=O)c3cc(F)cc(c23)N[C@@H]1c1ccc(F)cc1
- viability, T/C (compound 0.000316 µM): 101% and 102% and 91.8%
- viability, T/C (compound 0.001 µM): 91.2% and 106% and 101%
- viability, T/C (compound 0.00316 µM): 99.4% and 89% and 90.5%
- viability, T/C (compound 0.01 µM): 86.2% and 91.3% and 94.7%
- viability, T/C (compound 0.0316 µM): 98.2% and 92.9% and 117%
- viability, T/C (compound 0.1 µM): 110% and 96.3% and 103%
- IC50 (curve of compound): > 0.1 µM

SMILES: CC(Nc1ccc2c(c1)OCCn1cc(N3C(=O)OCC3C(F)F)nc1-2)C(N)=O (configuration not stated)
- viability, T/C (compound 0.00316 µM): 103% [middle of 7 runs]
- viability, T/C (compound 0.01 µM): 97.2% [middle of 7 runs]
- viability, T/C (compound 0.0316 µM): 99.6% [middle of 7 runs]
- viability, T/C (compound 0.316 µM): 99.6% [middle of 7 runs]
- viability, T/C (compound 1 µM): 73% [middle of 7 runs]
- IC50 (compound alone, run of 06/12/2023): > 1 µM
